{"source": "patent US20130296426A1", "about": "“ANALGESIC” (NAGOYA INDUSTRIAL SCIENCE RESEARCH INSTITUTE, priority 2011, published 2013)", "format_in_all_cases": "in vivo, rat", "key": {"[1]": {"tested_on": "MIA-induced OA rats", "test": "von Frey test, single administration to MIA-induced OA rats", "conditions": "for Recovery rate of 50% reaction threshold value (%): 1 hour after administration of test drug", "method": "There were conducted the following experiments for testing the analgesic action of the analgesic of the present invention using the osteoarthritis (OA) rats induced by sodium monoiodoacetate (MIA) which were model animals for OA.\nA 50% reaction threshold value to the mechanical stimulus of male Wistar rats of six weeks age was measured (the measuring method will be mentioned later) and a normal control group was selected. MIA prepared by saline was administered in a single dose of 0.3 mg/50 μL into right knee joint of the rats except the normal control group while 50 μL of saline was administered into left knee joint whereupon the MIA-induced OA rats were prepared. To the normal control group, 50 μL of saline was administered into the joints of both knees.\n(§1) With regard to the male Wistar rats of six weeks age used as experimental animals except the normal control group, their 50% reaction threshold values to the mechanical stimulus (the measuring method will be mentioned later) and body weights were measured after 24 days from the administration of MIA mentioned in (1) and then 4 groups each comprising six rats [a normal control group, an onset control group, a test drug-administered group and a loxoprofen sodium hydrate (LOX)-administered group (a positive control)] were organized.\nA test drug solution (0.1 mg/mL) using the compound 4 as a test drug and a LOX suspension (1 mg/mL) were prepared using a phosphate buffered saline (PBS) containing 0.1 vol % of dimethyl sulfoxide (DMSO) and a 0.5 w/v % aqueous solution of carboxymethyl cellulose, respectively.\n(§2) Immediately after the grouping (after 24 days from the administration of MIA), a test drug solution was intraperitoneally administered in a single dose of 0.5 mg/kg to a test drug-administered group while, a LOX suspension was orally administered in a single dose of 5 mg/kg to a LOX-administered group. Meanwhile, to the normal control group and the onset control group, PBS containing 0.1 vol % of DMSO was intraperitoneally administered in a single dose.\nThe four groups of rats of the above (2) were placed in a transparent acrylic cage with a wire-meshed floor and habituated for about three minutes and the 50% reaction threshold values to the mechanical stimulus were measured after 1, 3, 5 and 24 hours from the administration of a test drug.\nThe measurement was conducted using von Frey filaments (manufactured by North Coast Medical Inc.) in accordance with the methods of Chaplan, et al. (Journal of Neuroscience Methods, vol. 53, no. 1, pages 55 to 63, 1994) and Dixon, et al. (Annual Review of Pharmacology and Toxicology; vol. 20, pages 441 to 462, 1980). […] The case where the rat escaped at the instance of removing the filament was also called positive. When the positive reaction was noted, stimulus was conducted similarly using a filament of one rank weaker while, when no reaction was noted, stimulus was conducted similarly using a filament of one rank stronger and the point when the reaction changed from negative to positive or from positive to negative was called the first two reactions. After that, stimulus was conducted for continuous four times by the same up-down method. A 50% reaction threshold value to the mechanical stimulus was measured using the reaction to the six stimuli in total and then (mean value)±(standard error) for each group was calculated. Incidentally, when stimulus reached by that of 15.0 g without positive reaction or, when positive reaction continued to 0.4 g, then 15.0 g or 0.25 g was adopted as each threshold value, respectively.\nThe test for significant difference was performed using the test in two groups (Student's t-test or Welch test) or Wilcoxon test between the normal control group and the onset control group, between the onset control group and the test drug-administered group, between the onset control group and the LOX-administered group and between the test drug-administered group and the LOX-administered group. […]"}, "[2]": {"tested_on": "MIA-induced OA rats", "test": "von Frey test, repeated administration to MIA-induced OA rats", "conditions": "for Recovery rate of 50% reaction threshold value (%): repeated administration, 1 hour after administration of test drug", "method": "Selection of the normal control group and preparation of MIA-induced OA rats were conducted in the same manner as in the above 1.(1).\nas §1, with “stimulus, weight bearing rate to a MIA-non-administered hind paw” for “stimulus”, “27” for “24”, “four” for “4”, “LOX-administered” for “loxoprofen sodium hydrate (LOX)-administered”\nA test drug solution and an LOX suspension were prepared in the same manner as in the above 1.(2).\nas §2, with “During eight days from immediately” for “Immediately”, “27 to 34” for “24”, “repeated” for “a single”, “repeatedly.” for “in a single dose.”\nIn the same manner as in the above 1.(4), the 50% reaction threshold values to the mechanical stimulus were measured after 1, 3, 5 and 24 hour(s) from the final administration of a test drug. Mean value±standard error for each group was calculated and the test for significant difference was done in the same manner as in the above 1.(4).\nThe analgesic of the present invention was repeatedly administered to the MIA-induced OA rat and a von Frey test was conducted in the same manner as in the above test 1.(4) whereupon each 50% reaction threshold value was measured. With regard to the 50% reaction threshold value after 1 hour from the administration of a test drug, a recovery rate (%) of the 50% reaction threshold value was calculated in the same manner as in the above test 1.(4)."}, "[3]": {"tested_on": "MIA-induced OA rats", "test": "Weight bearing rate to MIA-non-administered hind paw (dual channel weight averager), repeated administration", "method": "as §2, with “During eight days from immediately” for “Immediately”, “27 to 34” for “24”, “repeated” for “a single”, “repeatedly.” for “in a single dose.”\nOne hind paw of a rat where OA was induced by administration of MIA develops a pain symptom. Therefore, a body weight bearing to a painless hind paw to which no MIA was administered increases in a rat for avoiding the application of body weight to the hind paw after administration of MIA. […] Using this weight bearing rate to the MIA-non-administered hind paw as an index, the analgesic action of the analgesic of the present invention was measured.\nThe weight bearing rate to the MIA-non-administered hind paw was determined by the following formula after measuring the weight distribution to right and left hind paws of a rat using a device for evaluating the analgesic effect for small animals (Incapacitance Tester manufactured by Linton Instrumentation). Mean value±standard error for each group was also calculated and the test for significant difference was carried out in the same manner as in the above 1.(4). […]"}, "[4]": {"tested_on": "experimental autoimmune neuritis (EAN) rats", "test": "von Frey test in Guillain-Bareé syndrome model (EAN) rats", "method": "The following experiment for checking the analgesic action of the analgesic of the present invention was conducted using the experimental autoimmune neuritis (EAN) rats which were the model animals for Guillain-Bareé syndrome having an on set of chronic pain.\nThe 50% reaction threshold value to mechanical stimulus of female Lewis rats of seven weeks age were measured to select a normal control group. Left hind paw of each of the anesthetized rats except the normal control group was immunized by subcutaneous administration of 0.1 mL of an emulsion prepared by equivalent mixing of a 2 mg/mL solution of a peptide derived from bovine P2 protein (SP-26) with an adjuvant complete Freund H37Ra whereupon EAN rats were prepared.\nThe grouping was conducted and a test drug was administered in the same manner as in (2) and (3) of the Pharmacological Test II.\nA von Frey test was carried out in the same manner as in 1.(4) of the above Pharmacological Test I to measure the 50% reaction threshold value to the mechanical stimulus to each group over time. The test for significant difference was conducted and recovery rate (%) of the 50% reaction threshold value was calculated in the same manner as in (4) of the above Pharmacological Test II."}}, "data": [{"smiles": "CCCCCCC/C=C/C(=O)OC", "note": "[Compound 3, Trans-2-decenoic acid methyl ester]", "values": [{"measurement": "Recovery rate of 50% reaction threshold value (%)", "setting": "[1]; single dose", "result": 32.4, "unit": "%"}, {"measurement": "Recovery rate of 50% reaction threshold value (%)", "setting": "[2]", "result": 23.3, "unit": "%"}]}, {"smiles": "CCCCCCC/C=C/C(=O)OCC", "note": "[Compound 4, Trans-2-decenoic acid ethyl ester]", "values": [{"measurement": "Recovery rate of 50% reaction threshold value (%)", "setting": "[1]; single dose", "result": 61.6, "unit": "%"}, {"measurement": "50% reaction threshold value to the mechanical stimulus", "setting": "[1]; single intraperitoneal dose 0.5 mg/kg, 24 days after MIA, vs onset control group, FIG. 1", "result": "significantly high"}, {"measurement": "50% reaction threshold value to the mechanical stimulus", "setting": "[2]; repeated intraperitoneal 0.5 mg/kg for eight days, after 1 and 3 hour(s) from the final administration, vs onset control group, FIG. 2", "result": "significantly high"}, {"measurement": "weight bearing rate to the MIA-non-administered hind paw", "setting": "[3]; repeated intraperitoneal 0.5 mg/kg for eight days, vs onset control group, FIG. 3", "result": "significantly decreased"}, {"measurement": "Recovery rate of 50% reaction threshold value (%)", "setting": "[4]; 0.25 mg/kg/day intraperitoneal once daily, After 8 days", "result": "100.0^[…] %"}, {"measurement": "Recovery rate of 50% reaction threshold value (%)", "setting": "[4]; 0.25 mg/kg/day intraperitoneal once daily, After 11 days", "result": "40.1^[…] %"}, {"measurement": "Recovery rate of 50% reaction threshold value (%)", "setting": "[4]; 0.25 mg/kg/day intraperitoneal once daily, After 25 days", "result": "21.7^[…] %"}, {"measurement": "Recovery rate of 50% reaction threshold value (%)", "setting": "[4]; 0.25 mg/kg/day intraperitoneal once daily, After 28 days", "result": "24.2^[…] %"}, {"measurement": "Recovery rate of 50% reaction threshold value (%)", "setting": "[4]; 0.50 mg/kg/day intraperitoneal once daily, After 8 days", "result": "98.5^[…] %"}, {"measurement": "Recovery rate of 50% reaction threshold value (%)", "setting": "[4]; 0.50 mg/kg/day intraperitoneal once daily, After 11 days", "result": 35.5, "unit": "%"}, {"measurement": "Recovery rate of 50% reaction threshold value (%)", "setting": "[4]; 0.50 mg/kg/day intraperitoneal once daily, After 25 days", "result": "38.3^[…] %"}, {"measurement": "Recovery rate of 50% reaction threshold value (%)", "setting": "[4]; 0.50 mg/kg/day intraperitoneal once daily, After 28 days", "result": "38.3^[…] %"}]}, {"smiles": "CCCCCCC/C=C/C(=O)OCCC", "note": "[Compound 5, Trans-2-decenoic acid propyl ester]", "values": [{"measurement": "Recovery rate of 50% reaction threshold value (%)", "setting": "[1]; single dose", "result": 8.1, "unit": "%"}]}, {"smiles": "CCCCCCC/C=C/COC(=O)/C=C/CCCCCCC", "note": "[Compound 16, Trans-2-decenoic acid trans-2-decenyl ester]", "values": [{"measurement": "Recovery rate of 50% reaction threshold value (%)", "setting": "[1]; single dose", "result": 39.6, "unit": "%"}, {"measurement": "Recovery rate of 50% reaction threshold value (%)", "setting": "[2]", "result": 61.4, "unit": "%"}, {"measurement": "weight bearing rate to the MIA-non-administered hind paw", "setting": "[3]; repeated intraperitoneal 0.5 mg/kg/day, FIG. 4", "result": "significantly lowered"}]}, {"smiles": "C=CCCCCCCCCOC(=O)/C=C/CCCCCCC", "note": "[Compound 17, Trans-2-decenoic acid trans-9-decenyl ester]", "values": [{"measurement": "Recovery rate of 50% reaction threshold value (%)", "setting": "[1]; single dose", "result": 19.5, "unit": "%"}]}, {"smiles": "CCCCCCC/C=C/C(=O)OC1CCCCC1", "note": "[Compound 18, Trans-2-decenoic acid cyclohexyl ester]", "values": [{"measurement": "Recovery rate of 50% reaction threshold value (%)", "setting": "[1]; single dose", "result": 20.8, "unit": "%"}, {"measurement": "Recovery rate of 50% reaction threshold value (%)", "setting": "[2]", "result": 32.6, "unit": "%"}]}, {"smiles": "CCCCCC/C=C/CC(=O)OCC", "note": "[Compound 20, Trans-3-decenoic acid ethyl ester]", "values": [{"measurement": "Recovery rate of 50% reaction threshold value (%)", "setting": "[1]; single dose", "result": 17.7, "unit": "%"}, {"measurement": "Recovery rate of 50% reaction threshold value (%)", "setting": "[2]", "result": 66.3, "unit": "%"}]}, {"smiles": "CC(C(=O)O)c1ccc(CC2CCCC2=O)cc1", "note": "(stereo not shown) [LOX, loxoprofen sodium hydrate, reference compound]", "values": [{"measurement": "suppressive action to hyperalgesia (50% reaction threshold value)", "setting": "[1]; single oral dose 5 mg/kg, 24 days after MIA, vs onset control group, FIG. 1", "result": "no significant suppressive action to hyperalgesia"}]}, {"smiles": "CCCCCCC/C=C/C(=O)O", "note": "[trans-2-decenoic acid, reference compound]", "values": [{"measurement": "suppressive effect for hyperalgesia (50% reaction threshold value before vs after 1 hour from administration)", "setting": "[1]; single dose, 1 hour after administration", "result": "no suppressive effect for hyperalgesia"}]}]}
